Results taken from PMC5847527, “Identification of a novel 2-oxindole fluorinated derivative as in vivo antitumor agent for prostate cancer acting via AMPK activation” (Scientific Reports, 2018).

Key:
p21 = p21 level by Western blot in PC-3 and LNCaP cells; assay type: cell-based, human
Method: Figure 4 Cell Cycle analysis in 8c-treated prostate cancer cells. (A) PC-3 and LNCaP cells were treated with compound 8c for 24 hours and cell cycle analysis was analyzed by flow cytometry using Propidium Iodide (PI). Percentage of cells in subG0, G1, S, and G2/M phases is indicated in the histogram. (B) Levels of Cyclin D1, p-p53, p53, p21 and cleaved Caspase 3 (17 kDa fragment) were determined by Western blot. Upper panel, representative Western blot of two different experiments. β-tubulin (β-Tub) serves as a loading control. […]
Cyclin D1 activity is modulated by several inhibitors such as p21 which negatively regulate cell cycle progression by interacting with cyclin dependent kinases (cdks). […] To further study the role of compound 8c in cell cycle, we determined the expression of p21, p53 and the levels of cleaved caspase 3 in the prostate cells. P53 was only determined in LNCaP cells since PC-3 cells are p53-negative[40].
(§1) Cells were lysed in Lysis buffer (50 mM Tris pH 7.4, 0.8 M NaCl, 5 mM MgCl2, 0.1% Triton X-100) containing Protease Inhibitor and Phosphatase inhibitor Cocktails (Roche, Basel, Switzerland). Protein concentrations were measured by BioRad™ protein assay kit (Richmond, CA, USA). […] Films were analyzed by densitometry. […]

AMPK [1] = experiment: AMPK and ACC phosphorylation by Western blot in LNCaP cells; assay type: cell-based, human; settings: 25 µM, 1 hour
Method: (§2) Figure 2 Effect of 2-oxindole fluorinated derivatives on AMPK activity in prostate cancer cells. (A) PC-3, DU145 and LNCaP cells were treated with 25 µM of the selected 2-oxindole fluorinated derivatives for 1 hour. Levels of the phosphorylated AMPK (pAMPK), phosphorylated ACC (pACC) and their total forms were determined by Western blot. Upper panel, a representative Western blot of three different experiments. β-tubulin (β-Tub) serves as a loading control. […] Lower panels, densitometric analyses of bands represented as the mean of the ratio pAMPK/AMPK or pACC/ACC ± SD of three different experiments. *p < 0.05 compared with the controls by one-way ANOVA followed by Fisher’s LSD test; ^#p < 0.05 compared with 2-oxindole fluorinated derivates or with the AMPK activators AMP or A769662 by one-way ANOVA followed by Tukey test.
(§3) Similar results were obtained although AMPK stimulation by compound 8c was not so strong (Fig. 2A). […]
as §1

AMPK [2] = experiment: AMPK and ACC phosphorylation by Western blot in DU145 cells; assay type: cell-based, human; settings: 25 µM, 1 hour
Method: as §2, §3, §1

AMPK [3] = target: T1, AMPK (Homo sapiens, UniProt Q13131); experiment: AMPK and ACC phosphorylation by Western blot in PC-3 cells; assay type: cell-based; settings: 25 µM, 1 hour
T1 construct: endogenous in cells; host or cells: PC-3, DU145, LNCaP
T1 sequence (Q13131 whole entry): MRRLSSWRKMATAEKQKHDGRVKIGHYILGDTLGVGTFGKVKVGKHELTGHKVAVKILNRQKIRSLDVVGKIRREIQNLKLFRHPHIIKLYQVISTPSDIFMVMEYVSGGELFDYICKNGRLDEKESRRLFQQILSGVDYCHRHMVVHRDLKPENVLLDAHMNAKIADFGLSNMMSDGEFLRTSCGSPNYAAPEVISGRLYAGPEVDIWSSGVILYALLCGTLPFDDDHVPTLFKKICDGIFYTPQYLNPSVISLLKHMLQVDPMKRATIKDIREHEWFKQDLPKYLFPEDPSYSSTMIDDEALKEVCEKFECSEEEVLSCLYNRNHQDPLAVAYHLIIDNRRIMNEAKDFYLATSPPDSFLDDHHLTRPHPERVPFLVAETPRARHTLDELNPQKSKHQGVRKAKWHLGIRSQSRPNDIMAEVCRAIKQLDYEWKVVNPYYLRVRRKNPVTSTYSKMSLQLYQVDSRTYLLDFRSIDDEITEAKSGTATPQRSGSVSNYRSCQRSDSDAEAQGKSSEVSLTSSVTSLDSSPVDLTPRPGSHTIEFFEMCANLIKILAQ
T1 sequence (Q9Y478 2-270 partner limits assumed): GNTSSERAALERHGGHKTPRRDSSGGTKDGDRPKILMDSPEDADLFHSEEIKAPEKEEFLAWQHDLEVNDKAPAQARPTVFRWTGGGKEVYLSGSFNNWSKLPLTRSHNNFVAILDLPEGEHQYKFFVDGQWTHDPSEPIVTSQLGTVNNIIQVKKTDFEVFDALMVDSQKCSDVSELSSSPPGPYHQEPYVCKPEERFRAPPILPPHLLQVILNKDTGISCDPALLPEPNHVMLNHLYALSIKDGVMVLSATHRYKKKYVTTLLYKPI
T1 sequence (P54619 whole entry partner): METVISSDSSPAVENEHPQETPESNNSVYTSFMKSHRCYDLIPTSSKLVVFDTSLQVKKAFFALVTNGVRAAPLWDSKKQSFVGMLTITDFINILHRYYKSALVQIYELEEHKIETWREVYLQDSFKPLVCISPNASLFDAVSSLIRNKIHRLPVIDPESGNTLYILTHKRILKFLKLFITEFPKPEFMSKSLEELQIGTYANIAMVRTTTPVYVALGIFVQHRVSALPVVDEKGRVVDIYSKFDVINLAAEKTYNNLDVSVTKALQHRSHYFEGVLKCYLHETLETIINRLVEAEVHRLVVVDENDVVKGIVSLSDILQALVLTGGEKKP
Source text: To investigate the effect of the compounds on AMPK activity at cellular level, compounds 8a-c and 9a-b were selected to perform AMPK phosphorylation assays in human prostate cancer cell lines. We use the PC-3 cell line as it is androgen-resistant and represents the advanced and aggressive stage of prostate cancer. […] AMPK inhibits lipogenic pathway through phosphorylation of its well-known substrate acetyl-CoA carboxylase (ACC). To confirm the modulation of AMPK activity in prostate cells by the compounds, we determined levels of phosphorylated ACC in 2-oxindole fluorinated derivatives-treated cells. […] It is worthy to note that the highest ACC phosphorylation was obtained with compound 8c denoting a powerful activity of this compound in PC-3 cells.
as §2
Human prostate cancer epithelial PC-3, DU145 and LNCaP and human prostate normal RWPE-1 cells were purchased from American Type Culture Collection (ATCC CRL-1435 CRL-1740 and CRL 11609 respectively) (Rockville, MD, USA). The human prostate normal PNT2 cell line was purchased to ECACC (European Collection of Cell cultures, Salisbury, SP4 0JG, UK). Cells were routinely grown in RPMI 1640 medium supplemented with 100 IU/ml penicillin G sodium, 100 µg/ml streptomycin sulfate, 0.25 µg/ml amphotericin B (Invitrogen, Paisley, UK) and 10% fetal calf serum. Cells were used at passages between 10–20. For treatment experiments, cells were plated and grown over night, the medium was then replaced with serum-free RPMI 1640 for 24 hours and then incubated with different doses of the compounds for the indicated times.
Cells were lysed in Lysis buffer (50 mM Tris pH 7.4, 0.8 M NaCl, 5 mM MgCl2, 0.1% Triton X-100) containing Protease Inhibitor and Phosphatase inhibitor Cocktails (Roche, Basel, Switzerland). Protein concentrations were measured by BioRad™ protein assay kit (Richmond, CA, USA). Equal amount of protein (20 μg) from each sample was separated on 8% SDS–PAGE gels and transferred to PVDF membranes (BioRad). The membranes were blocked with blocking buffer (1× TBS, 0.1% Tween 20 with 5% w/v fat-free dry milk), washed and incubated with primary antibodies at 4 °C for 12 h. The membranes were subsequently washed with TBS-T (1× TBS and 0.1% Tween 20) and incubated with horseradish peroxidase-conjugated anti-mouse or anti-rabbit IgG antibodies (Sigma, St Louis, MO, USA) at room temperature for 1 h. The immune complex was visualized with an ECL system (Cell Signaling Technology). Films were analyzed by densitometry. The anti-pAMPKα1-thr172, pACC-ser79, pP53, P21, pRaptor and the antibodies against the corresponding total forms were obtained from Cell Signaling Technology (Danvers, MA, USA). The anti-caspase 3 and anti-procaspase 3 were from Santa Cruz Biotechnology (Dallas, Texas, USA). The anti-HIF1A was from Novus Biologicals LLC (Littleton, CO, USA). The anti-Cyclin D1 antibody was obtained from ThermoFisher (Alcobendas, Madrid, Spain). All the other chemicals were obtained from Sigma (St. Louis, MO, USA).

SMILES: O=C1Nc2ccccc2C1(F)Cc1ccc(-c2ccccc2)o1 (centres unmarked) [Compound 8c, 3-fluoro-3-((5-phenylfuran-2-yl)methyl)indolin-2-one]
- p21 protein level (p21): remarkably increase in p21 protein
- AMPK phosphorylation (pAMPK/AMPK) (AMPK [1]): notably activated AMPK
- AMPK phosphorylation (pAMPK/AMPK) (AMPK [2]): stimulate AMPK in DU145 cells
- ACC phosphorylation (pACC/ACC) (AMPK [3]): augmented pACC
- Thr172 phosphorylation of AMPK (pAMPK/AMPK) (AMPK [3]; compared to controls): significant increase in Thr172 phosphorylation of AMPK
